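Exposure lasted 48 hours, with cells grown in 96-well plates and compounds tested at five concentrations. TGI: concentration producing complete growth inhibition.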
Assays:
Assay in all cases: NCI-60 cell line screen, 48 h
NCI-H522 lung = system: NCI-H522 lung
HT29 colon = system: HT29 colon
EKVX NSCLC = system: EKVX NSCLC
A549 NSCLC = system: A549 NSCLC
MDA-N = system: MDA-N
UACC-257 melanoma = system: UACC-257 melanoma
MDA-MB-435 = system: MDA-MB-435
SK-MEL-5 melanoma = system: SK-MEL-5 melanoma
SK-MEL-2 melanoma = system: SK-MEL-2 melanoma
HL-60(TB) leukemia = system: HL-60(TB) leukemia
MDA-MB-231 breast = system: MDA-MB-231 breast
SF-268 CNS = system: SF-268 CNS
SF-295 CNS = system: SF-295 CNS
SK-MEL-28 melanoma = system: SK-MEL-28 melanoma
HCT-116 colon = system: HCT-116 colon
K-562 leukemia = system: K-562 leukemia
U251 CNS = system: U251 CNS
HS 578T breast = system: HS 578T breast
LOX IMVI melanoma = system: LOX IMVI melanoma
MOLT-4 leukemia = system: MOLT-4 leukemia
COLO 205 colon = system: COLO 205 colon
HOP-92 NSCLC = system: HOP-92 NSCLC
DU-145 prostate = system: DU-145 prostate
SF-539 CNS = system: SF-539 CNS
NCI-H460 lung = system: NCI-H460 lung
CAKI-1 renal = system: CAKI-1 renal
SNB-75 CNS = system: SNB-75 CNS
A498 renal = system: A498 renal
UACC-62 melanoma = system: UACC-62 melanoma
PC-3 prostate = system: PC-3 prostate
NCI/ADR-RES ovarian = system: NCI/ADR-RES ovarian
NCI-H23 lung = system: NCI-H23 lung
SW-620 colon = system: SW-620 colon
MALME-3M melanoma = system: MALME-3M melanoma
KM12 colon = system: KM12 colon
TK-10 renal = system: TK-10 renal
SK-OV-3 ovarian = system: SK-OV-3 ovarian
SR leukemia = system: SR leukemia
IGROV1 ovarian = system: IGROV1 ovarian
M14 melanoma = system: M14 melanoma
UO-31 renal = system: UO-31 renal
OVCAR-8 ovarian = system: OVCAR-8 ovarian
HCT-15 colon = system: HCT-15 colon
BT-549 breast = system: BT-549 breast
RXF 393 renal = system: RXF 393 renal
OVCAR-5 ovarian = system: OVCAR-5 ovarian
SNB-19 CNS = system: SNB-19 CNS
ACHN renal = system: ACHN renal
OVCAR-4 ovarian = system: OVCAR-4 ovarian
786-0 renal = system: 786-0 renal
T-47D breast = system: T-47D breast
NCI-H226 lung = system: NCI-H226 lung
SN12C renal = system: SN12C renal
HOP-62 NSCLC = system: HOP-62 NSCLC
OVCAR-3 ovarian = system: OVCAR-3 ovarian
RPMI-8226 leukemia = system: RPMI-8226 leukemia
MCF7 breast = system: MCF7 breast

Measured: TGI

Nc1ncnc2c1ncn2C1OC(CO)C(O)C1N (centres undefined)
not listed: MCF7 breast
> 100 µM: all other assays above

Cc1ccc(S(=O)(=O)NC(CN)C(=O)O)cc1 (centres undefined)
not listed: HL-60(TB) leukemia | K-562 leukemia | SR leukemia | SN12C renal
> 100 µM: all other assays above

— PubChem BioAssay (NCI)
